# Entries after “also recorded” stand apart in the source; their conditions may differ.
# Columns and labels:
# [1] = test system: GFP^MYR/mCh^MYR translation reporters in DRG axons; assay: FRAP of axonal translation reporters; format: cell-based, rat; conditions: 10 μM peptide 30 min
# Procedure: Fluorescence recovery after photobleaching (FRAP). FRAP was used to test for axonal mRNA protein synthesis using diffusion-limited GFP^MYR and mCherry^MYR reporters as described with minor modifications. In each case, DRG neurons were co-transfected with GFP^MYR 5′/3′nrn1+mCherry^MYR 5′/3′gap43 or GFP^MYR 5′/3′impβ1+mCherry^MYR5′/3′gap43 so that recovery of both reporters could be analyzed simultaneously. Cells were maintained at 37° C., 5% CO2 during imaging sequences. 488 nm and 514 nm laser lines on Leica SP8X confocal microscope were used to bleach GFP and mCherry signals, respectively (Argon laser at 70% power, pulsed every 0.82 s for 80 frames). Pinhole was set to 3 Airy units to ensure full thickness bleaching and acquisition (63×/1.4 NA oil immersion objective). Prior to photobleaching, neurons were imaged every 60 s for 2 min to acquire baseline fluorescence the region of interest (ROI; 15% laser power, 498-530 nm for GFP and 565-597 nm for mCherry emissions, respectively). The same excitation and emission parameters were used to assess recovery over 15 min post-bleach with images acquired at 30 s intervals. To determine if fluorescence recovery in axons was from translation, cultures were treated with 150 μg/ml cycloheximide (Sigma) or 100 μm anisomycin (Sigma) for 30 min prior to photobleaching for GFP^MYR 5′/3′nrn1+mCherry^MYR 5′/3′gap43 and GFP^MYR 5′/3′impβ1+mCh^MYR 5′/3′gap43 transfected DRGs, respectively. […] Photobleaching followed by analyses of recovery was performed after 30 min of peptide exposure.
# For normalizing across experiments, fluorescence intensity value at t=0 min postbleach from each image sequence was set as 0%. The percentage of fluorescence recovery at each time point after photobleaching was then calculated by normalizing relative to the pre-bleach fluorescence intensity (set at 100%).
# [2] = test system: NMJs of TDPΔNLS MN-muscle co-cultures; assay: TMRE mitochondrial activity in in vitro NMJs; format: cell-based, mouse; conditions: 20 μM peptide in NMJ compartment
# Procedure: Muscles in co-culture were kept in BA medium for 7 days. To aid NMJ formation, media in all compartments was then replaced to poor neurobasal (PNB) medium, which contained only 1% P/S and 1% Glutamax. Doxycycline was applied to TDP-43ΔNLS cultures only at the proximal MN compartment, in a concentration of 0.1 μg/mL, immediately after plating and throughout the entire experimental timeline. For TDPΔNLS recovery experiments (FIGS. 7-8), Doxycline was […] at the proximal MN compartment after 5 DIV, and the cultures were grown until 11 DIV. For G3BP1 peptide treatment (FIG. 21 at i-j, FIG. 24 at f), 20 μM G3BP1 peptides were added exclusively to the distal compartment, starting after 7 DIV.
# Mitochondrial membrane potential was assessed with Tetramethylrhodamine Ethyl, Ester (TMRE; Thermo Fisher) dye. Cultures were incubated with 20 nM TMRE for 30 min in CO2 incubator, then washed 3 times with culture medium. Images of TMRE labeled axons in the distal compartment of MFCs were acquired before and after cultures were treated with Anisomycin (40 μM) or NaAsO2 (250 μM), Cycloheximide (150 μM) in ×60 magnification. […] The intensity of TMRE fluorescence in axonal mitochondria was measured using FIJI, and the fraction of change post/pretreatment was calculated for each image field.
# [3] = test system: G3BP1-mCherry aggregates in DRG axons; assay: Live cell imaging of G3BP1-mCherry granules; format: cell-based, rat; conditions: 10 μM peptide, 15 min
# Procedure: Live cell imaging for G3BP1-mCherry granules. DRG neurons were transfected with G3BP1-mCherry, and 36 h later distal axons were imaged using Leica SP8X confocal microscope with environmental chamber maintained at 37° C., 5% CO2 (with 63×/1.4 NA oil immersion objective). G3BP1-mCherry signals were imaged as single optical planes in the axon shaft every 2 s for 100 frames (at 540 nm excitation and 23% white light laser power; 565-597 nm emission). To study the effect of the G3BP1 190-208 or 168-189 peptide, 10 μM FITC-conjugated peptide was added to the media and 15 min later imaging was continued.
# For quantitation of G3BP1-mCherry aggregates density and size, a 100 μm of the axon shaft was considered (≥200 μm from cell body). Thresholding was applied to acquired image sequences using ImageJ to generate binary masks.
# ImageJ particle analyzer was used for analysis. G3BP1 aggregates with area≥1 μm^2 were considered as SG-like structures. For analyzing the G3BP1 aggregate velocity, ImageJ Trackmate plug-in was used.
substance,measurement,setting,value
YGNKKNNNQNNN-VVEPEPEPEPEPEPEPVSE [G3BP1 190-208 peptide],axonal translation of GFP^MYR 5′/3′nrn1,[1]; G3BP1 overexpression (G3BP1-BFP),reversed the decrease in axonal translation; also recorded: increased
same,axonal translation of GFP^MYR 5′/3′impβ1,[1]; G3BP1 overexpression,did not rescue the decline in axonal translation
same,GFP^MYR 5′/3′impβ1 translation in axons,[1]; control conditions,lack of effect
same,mCh^MYR 5′/3′gap43 translation in axons,[1]; control conditions,lack of effect
same,pre-synaptic TMRE signal (mitochondria activity) in NMJs,[2],recovered
same,density of axonal G3BP1-mCherry aggregates along 100 μm axon,[3],striking decrease
same,motility of remaining G3BP1-mCherry aggregates,[3],greater motility
same,size of G3BP1-mCherry aggregates (SG-like structures),[3],significantly smaller

# Source: patent US20230190887A1, “TARGETING G3BP AGGREGATION TO PREVENT NEURODEGENERATION” (priority 2019, published 2023)
